Laboratory results published in article PMC10333884, “Large‐scale phosphomimetic screening identifies phospho‐modulated motif‐based protein interactions” (Molecular Systems Biology, 2023).
Each block holds one compound with its values, some of them ahead of it. Non-standard residues stand in square brackets, D forms with d. Residues, ends and D or L forms follow the SMILES beside them. pT = C[C@@H](OP(=O)(O)O)[C@H](N)C(=O)O; pS = N[C@@H](COP(=O)(O)O)C(=O)O

Tests used:
Assay type in all cases: binding
Clathrin NTD = target: T1, Clathrin NTD (Homo sapiens, UniProt Q00610); assay: FP displacement assay, clathrin NTD
T1 construct: GST (cleaved yes); made in house; host or cells: Escherichia coli BL21-Gold(DE3)
T1 sequence (Q00610 1-364): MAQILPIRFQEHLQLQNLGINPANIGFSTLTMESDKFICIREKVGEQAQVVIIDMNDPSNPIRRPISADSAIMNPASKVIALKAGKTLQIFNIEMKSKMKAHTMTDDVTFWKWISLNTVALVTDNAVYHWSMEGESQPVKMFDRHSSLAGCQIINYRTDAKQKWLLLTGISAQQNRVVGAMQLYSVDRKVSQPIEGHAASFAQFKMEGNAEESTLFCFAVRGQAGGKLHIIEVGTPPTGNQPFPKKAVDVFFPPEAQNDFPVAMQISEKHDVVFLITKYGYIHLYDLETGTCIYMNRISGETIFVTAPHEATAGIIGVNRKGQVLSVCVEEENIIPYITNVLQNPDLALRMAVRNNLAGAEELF
Protocol: (§1) FP experiments were performed as described previously (Kliche et al, [2021]). Shortly, in order to monitor the binding event, FITC‐labelled peptides were used (excitation 495 nm, emission: 535 nm) and the FP signal was recorded in mP on a SpectraMax iD5 Multi‐Mode Microplate Reader (Molecular Devices) by measuring the emitted light in two angels. The measurements were performed at room temperature and prepared in nonbinding black half area 96‐well microplates (Corning®; 50 μl/well). For measuring direct binding, that is saturation curves, a 1:1 dilution series of protein domain (25 μl/well) was generated in 50 mM sodium phosphate buffer pH 7.4 and the measurement performed with 5 nM FITC‐labelled peptide (25 μl/well). The buffer‐corrected values were subsequently plotted with PRISM and fitted to the quadratic equation (Gianni et al, [2005]).
(§2) The 1:1 dilution series in this experiment was performed with the unlabelled peptide in 50 mM sodium phosphate buffer pH 7.4, so that each well‐contained unlabelled peptide (25 μl) at a certain concentration and pre‐formed complex (25 μl). The KD values of this indirectly monitored binding event were calculated as described previously (Nikolovska‐Coleska et al, [2004]). All measurements were at least in technical triplicates as well as biological duplicates when indicated. An amplitude shift between repeat measurements in the displacement experiments was occasionally observed due to variations in the protein preparations. If that was the case, the “active” protein concentration was back‐calculated according to the quadratic equation from the saturation curves performed in parallel. By comparing the active protein concentrations in the complex between different protein preparations, the amplitude was normalised.

RANBP2 RanBD4 = target: T2, RANBP2 RanBD4 (Homo sapiens, UniProt P49792); assay: FP displacement assay, RANBP2 RanBD4; settings: probe FITC-C7orf25 5 nM, 50 mM sodium phosphate pH 7.4, room temperature, at least three technical replicates, read-out: KD values ± SEM
T2 construct: GST (cleaved yes); made in house; host or cells: Escherichia coli BL21-Gold(DE3)
T2 sequence (P49792 2924-3050): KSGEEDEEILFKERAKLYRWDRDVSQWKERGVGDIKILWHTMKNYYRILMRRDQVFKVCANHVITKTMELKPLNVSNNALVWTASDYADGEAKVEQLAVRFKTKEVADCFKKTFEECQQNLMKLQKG
Protocol: as §1, §2

PDCD6IP Alix V domain = target: T3, PDCD6IP Alix V domain (Homo sapiens, UniProt Q8WUM4); assay: FP displacement assay, PDCD6IP Alix V domain; settings: probe FITC-HIV1_Gag 5 nM, 50 mM sodium phosphate pH 7.4, room temperature, at least three technical replicates, read-out: KD values ± SEM
T3 construct: GST (cleaved yes); made in house; host or cells: Escherichia coli BL21-Gold(DE3)
T3 sequence (Q8WUM4 360-702): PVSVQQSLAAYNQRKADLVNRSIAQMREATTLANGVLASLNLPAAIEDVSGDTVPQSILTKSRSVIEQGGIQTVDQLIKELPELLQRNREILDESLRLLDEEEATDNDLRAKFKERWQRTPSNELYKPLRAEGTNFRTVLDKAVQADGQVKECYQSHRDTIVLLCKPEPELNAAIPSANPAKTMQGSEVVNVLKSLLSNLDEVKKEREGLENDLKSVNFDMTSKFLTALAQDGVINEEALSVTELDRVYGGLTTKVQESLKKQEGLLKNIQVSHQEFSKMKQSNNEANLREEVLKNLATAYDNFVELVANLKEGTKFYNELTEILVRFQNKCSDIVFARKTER
Protocol: as §1, §2

GGA1 VHS [1] = target: T4, GGA1 VHS (Homo sapiens, UniProt Q9UJY5); assay: ITC, GGA1 VHS; set-up: Ka: unit not given beside the values
T4 construct: GGA1_VHS__Q9UJY5_1_157; GST (cleaved yes); made in house; host or cells: Escherichia coli BL21-Gold(DE3)
T4 sequence (Q9UJY5 1-157): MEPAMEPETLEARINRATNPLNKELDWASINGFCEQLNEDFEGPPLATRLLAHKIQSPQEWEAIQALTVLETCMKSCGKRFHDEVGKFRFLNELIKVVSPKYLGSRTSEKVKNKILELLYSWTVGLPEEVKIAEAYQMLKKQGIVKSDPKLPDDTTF

GGA1 VHS [2] = target: T4, GGA1 VHS; assay: FP displacement assay, GGA1 VHS; settings: FP displacement, probe FITC-IGF2R 5 nM, 50 mM sodium phosphate pH 7.4, room temperature; at least three technical replicates; read-out: KD values ± SEM
Protocol: as §1, §2

SMILES: CC[C@H](C)[C@H](NC(=O)[C@H](CC(C)C)NC(=O)[C@H](CC(N)=O)NC(=O)CNC(=O)CNC(=O)[C@H](Cc1ccc(O)cc1)NC(C)=O)C(=O)N[C@H](C(=O)N[C@@H](Cc1ccccc1)C(=O)N[C@@H](COP(=O)(O)O)C(=O)N1CCC[C@H]1C(=O)N[C@@H](CC(C)C)C(=O)N[C@@H](CCC(N)=O)C(=O)N1CCC[C@H]1C(=O)NCC(=O)N[C@@H](CCC(=O)O)C(=O)N[C@@H](Cc1ccccc1)C(=O)O)[C@@H](C)O [HURP832–846 pS Cterm] (Ac-YGGNLITF[pS]PLQPGEF-OH)
Kd (Clathrin NTD): < 3 µM | IC50 (Clathrin NTD; Fig 6A, clathrin NTD, FP displacement, two to three technical replicates per protein preparation, 2 independent preparations, read-out: IC50 values of displacement curves, with SEM): 11 ± 4 µM

SMILES: CC(=O)N[C@@H](CCCCN)C(=O)N[C@@H](Cc1ccc(O)cc1)C(=O)N[C@@H](CO)C(=O)N[C@@H](CC(=O)O)C(=O)N[C@@H](CC(=O)O)C(=O)N[C@H](C(=O)N1CCC[C@H]1C(=O)N[C@@H](CC(C)C)C(=O)N1CCC[C@H]1C(=O)N[C@H](C(=O)N1CCC[C@H]1C(=O)N[C@@H](CO)C(=O)N[C@@H](Cc1ccc(O)cc1)C(=O)N[C@@H](CCCCN)C(=O)N[C@@H](Cc1ccc(O)cc1)C(=O)N[C@@H](CC(N)=O)C(N)=O)[C@@H](C)OP(=O)(O)O)[C@@H](C)O [DHX38_260–275 pS] (Ac-KYSDDTPLP[pT]PSYKYN-NH2)
Kd (RANBP2 RanBD4): 167 ± 21 µM

SMILES: CC[C@H](C)[C@H](NC(=O)[C@H](CC(C)C)NC(=O)[C@H](CCC(N)=O)NC(=O)CNC(=O)[C@H](Cc1ccc(O)cc1)NC(C)=O)C(=O)N[C@@H](CC(=O)O)C(=O)N[C@@H](CC(C)C)C(=O)N[C@@H](CO)C(=O)N[C@@H](CO)C(=O)N1CCC[C@H]1C(=O)N[C@@H](CC(C)C)C(=O)N[C@H](C(=O)N[C@@H](CCC(N)=O)C(=O)N[C@@H](CC(C)C)C(=O)N[C@@H](CO)C(=O)N1CCC[C@H]1C(=O)N[C@@H](CCC(=O)O)C(N)=O)[C@@H](C)CC [GTSE1_692–707] (Ac-YGQLIDLSSPLIQLSPE-NH2)
Kd (Clathrin NTD): ~100 µM

Now from value to compound:

Kd (PDCD6IP Alix V domain): 25 ± 3 µM
SMILES: CC[C@H](C)[C@H](NC(=O)[C@H](CCCCN)NC(=O)[C@H](CC(C)C)NC(=O)[C@@H]1CCCN1C(=O)[C@H](CO)NC(=O)[C@@H](NC(=O)[C@H](CCC(N)=O)NC(=O)[C@@H]1CCCN1C(=O)[C@H](Cc1ccc(O)cc1)NC(=O)[C@H](CC(C)C)NC(=O)[C@@H]1CCCN1C(=O)[C@H](CCCNC(=N)N)NC(=O)[C@H](CC(C)C)NC(=O)[C@@H]1CCCN1C(=O)[C@H](CO)NC(=O)[C@H](C)NC(C)=O)[C@@H](C)CC)C(N)=O [FOXK1_212–227 wt] (Ac-ASPLRPLYPQISPLKI-NH2)

Kd (GGA1 VHS [1]; ITC (iTC200), 50 mM sodium phosphate pH 7.4, 1 mM DTT, average of the runs, technical duplicates): 27 µM | Ka (GGA1 VHS [1]; ITC single run: date 200220, injection 1): 35100 | Ka (GGA1 VHS [1]; ITC single run: date 200220, injection 2): 38900 | Kd (GGA1 VHS [2]): 31 ± 3 µM
SMILES: CC[C@H](C)[C@H](NC(=O)[C@H](CC(=O)O)NC(=O)[C@H](CC(=O)O)NC(=O)[C@H](CO)NC(=O)[C@@H](NC(=O)[C@@H]1CCCN1C(=O)[C@H](CO)NC(=O)[C@H](CCCCN)NC(=O)[C@H](Cc1ccc(O)cc1)NC(C)=O)[C@@H](C)O)C(=O)N[C@@H](COP(=O)(O)O)C(=O)N[C@@H](CC(C)C)C(=O)N[C@@H](CC(C)C)C(=O)N[C@@H](Cc1c[nH]cn1)C(=O)N[C@@H](CCC(=O)O)C(=O)N[C@@H](CO)C(=O)N[C@@H](CCC(N)=O)C(=O)N[C@@H](CO)C(N)=O [RNF11_6–21 pS] (Ac-YKSPTSDDI[pS]LLHESQS-NH2)
